Literature values in patent publication EP4674947A1, “YEAST MUTANT STRAIN WITH HIGH GLYCOLIPID PRODUCTIVITY” (KAO CORPORATION, priority 2024, dated 2025).

Settings: decreased from 72.8 mN/m; sophorolipid produced by Starmerella bombicola

surface tension of water decreased to: 30 mN/m
Substance: Sophorolipid
